Experimental data as given in patent US11840527B2, “Non-fused thiophene derivatives and their uses” (ENYO PHARMA, priority 2018, dated 2023).

System: LXFL 1121
Experiment: Cytotoxicity, propidium iodide-based monolayer assay
Details: 96 h; LXFL 1121, lung large cell carcinoma; four days of treatment; T/C=50%; read-out: Absolute IC50
Experimental: The cytotoxicity was tested for compounds of the invention on five different cell-lines, namely LXFL 1121, MAXF 401, MMXF L-636, PRXF PC-3M and UXF 1138 which are respectively lung large cell carcinoma, breast adeno carcinoma, multiple myeloma, prostate adeno carcinoma and uterine sarcoma.
Therefore, the compounds have a cytotoxicity against tumor cells and can be used for treating cancer. Materials and Methods Compound Handling A working stock solution of the test compounds was prepared in DMSO at a concentration of 33 mM or 8.25 mM, and small aliquots were stored at −20° C. On each day of an experiment, a frozen aliquot of the working stock solution was thawed and stored at room temperature prior to and during treatment. All liquid handling steps were performed using the Tecan Freedom EVO 200 platform. First, serial 2-fold dilutions of the 33 mM DMSO working stock solution were done in DMSO. […] Briefly, cells were harvested from exponential phase cultures, counted and plated in 96 well flat-bottom microtiter plates at a cell density of 4,000 to 40,000 cells/well dependent on the cell line's growth rate. […] After an incubation period of 1-2 hours at room temperature, fluorescence (FU) was measured using the Enspire Multimode Plate Reader (excitation λ=530 nm, emission λ=620 nm) to quantify the amount of attached viable cells. […]

Q: How did the IC50 turn out when `O=C(Nc1scc(-c2ccc(Cl)c(F)c2)c1C(=O)O)c1ccccc1` [Compound #2, 2-Benzamido-4-(4-chloro-3-fluoro-phenyl)thiophene-3-carboxylic acid] was run?
A: Its IC50 is 10.7 µM.
